Experimental data published in PubChem BioAssay (NCI).
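Protocol summary: plate cells (96-well), add compound at 5 concentrations, incubate 48 h, interpolate endpoints linearly. The concentration for 50% growth inhibition is given as GI50. TGI is the concentration that stops growth completely.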

Key:
Assay in all cases: NCI anticancer screen, dose series, 48 h
[1] = test system: HOP-62 NSCLC
[2] = test system: TK-10 renal
[3] = test system: HCT-15 colon
[4] = test system: KM12 colon
[5] = test system: HCT-116 colon
[6] = test system: NCI-H460 lung
[7] = test system: OVCAR-3 ovarian
[8] = test system: 786-0 renal
[9] = test system: MDA-MB-435
[10] = test system: PC-3 prostate

| SMILES | GI50 [1] | TGI [1] | GI50 [2] | TGI [2] | GI50 [3] | TGI [3] | GI50 [4] | TGI [4] | GI50 [5] | TGI [5] | GI50 [6] | TGI [6] | GI50 [7] | TGI [7] | GI50 [8] | TGI [8] | GI50 [9] | TGI [9] | GI50 [10] | TGI [10] |
| --- | --- | --- | --- | --- | --- | --- | --- | --- | --- | --- | --- | --- | --- | --- | --- | --- | --- | --- | --- | --- |
| CC(=O)[CH-]C(=O)c1ccccc1.CC(=O)[CH-]C(=O)c1ccccc1.C[C@]12CCC(=O)C=C1CC[C@@H]1C2CC[C@@]2(C)C1CC[C@@H]2[O-].C[C@]12CCC(=O)C=C1CC[C@@H]1C2CC[C@@]2(C)C1CC[C@@H]2[O-].Cl.[Ti+4] (stereo partly specified) | 20.6 µM | 59.9 µM | 29.4 µM | > 100 µM | 15.2 µM | 43 µM | 20.3 µM | 66.2 µM | 27.6 µM | > 100 µM | 14.8 µM | 30.9 µM | 13.2 µM | 65.5 µM | 13.5 µM | 26.3 µM |  |  |  |  |
| OCc1c[te]c(-c2ccccc2)c1 |  | > 100 µM |  | > 100 µM |  | > 100 µM |  | > 100 µM |  | 33.3 µM |  | > 100 µM |  | 30.2 µM |  | > 100 µM |  |  |  |  |
| CCNC(=O)O/N=C1\CCC2[C@@H]3CC=C4C[C@@H](OC5CCCCO5)CC[C@]4(C)C3CC[C@]12C (stereo partly specified) |  | > 100 µM |  | 3.81 µM |  |  |  | 17 µM |  | > 100 µM |  | 6.21 µM |  | 10.7 µM |  | 6.48 µM |  |  |  |  |
| N/N=c1\c2ccccc2c2cc3c(cc12)/c(=N/N)c1ccccc13 |  | > 100 µM |  |  |  | > 100 µM |  | > 100 µM |  | > 100 µM |  | > 100 µM |  |  |  | > 100 µM |  |  |  |  |
| C=C(C(=C)P(=S)(c1ccccc1)c1ccccc1)P(=S)(c1ccccc1)c1ccccc1 |  | > 100 µM |  | > 100 µM |  | > 100 µM |  | > 100 µM |  | > 100 µM |  | > 100 µM |  | > 100 µM |  | > 100 µM |  |  |  |  |
| CC#CC1C2CCCC1(CSc1ccccc1)NC(=O)O2 (stereo unspecified) |  | > 100 µM |  | > 100 µM |  | > 100 µM |  | > 100 µM |  | > 100 µM |  | > 100 µM |  | > 100 µM |  | > 100 µM |  |  |  |  |
| Clc1cc(Cl)cc(N2N=C(c3cccc(Nc4ccncc4)c3)CC2c2ccc3c(c2)OCO3)c1 (stereo unspecified) | 1.79 µM | 3.64 µM |  |  | 1.76 µM | 3.44 µM | 1.78 µM | 3.35 µM | 1.7 µM | 3.42 µM | 1.76 µM | 3.34 µM | 1.73 µM | 3.27 µM | 1.69 µM | 3.14 µM | 1.62 µM | 3.09 µM | 1.59 µM | 3.18 µM |
| CC(=O)Nc1ccc(COC(O)CN2CCCCC2)cc1[N+](=O)[O-] (stereo unspecified) |  |  |  | > 100 µM |  | > 100 µM |  | > 100 µM |  | > 100 µM |  | > 100 µM |  | > 100 µM |  | > 100 µM |  | > 100 µM |  | > 100 µM |
| COc1ccc2nc3cc(Cl)ccc3c(Sc3ccc([N+](=O)[O-])cc3)c2c1 | > 100 µM | > 100 µM | > 100 µM | > 100 µM | > 100 µM | > 100 µM | > 100 µM | > 100 µM | > 100 µM | > 100 µM | > 100 µM | > 100 µM | > 100 µM | > 100 µM | > 100 µM | > 100 µM |  |  |  |  |
| CN1CCN(C)C12C=CC=CC21CC1 |  | > 100 µM |  | > 100 µM |  | > 100 µM |  | > 100 µM |  | > 100 µM |  | > 100 µM |  | > 100 µM |  | > 100 µM |  |  |  |  |
| Cc1ccccc1-n1c2nc(=O)n(C)c(=O)c-2nc2ccccc21 |  | > 100 µM |  | 35.2 µM |  | 24.3 µM |  | 33.5 µM |  | 28.3 µM |  | 27.3 µM |  | 6.94 µM |  | 58 µM |  |  |  |  |
| COc1ccccc1NC(=O)c1nc2ccc([N+](=O)[O-])cc2nc1C |  | > 100 µM |  | > 100 µM |  | > 100 µM |  | > 100 µM |  | > 100 µM |  | > 100 µM |  | > 100 µM |  | > 100 µM |  |  |  |  |
| NCCNCc1c2ccccc2c(CNCCN)c2ccccc12 |  | 69.3 µM |  | > 100 µM |  | > 100 µM |  | 62.6 µM |  | 48.3 µM |  | 27 µM |  | 70.8 µM |  | 53.4 µM |  |  |  |  |
| CC(=O)Oc1ccc(/C(=C(\C)c2ccc(Cl)cc2)c2ccc(OCCN3CCCCC3)cc2)cc1 | 2.05 µM | 4.23 µM |  |  | 1.61 µM | 3.19 µM | 1.77 µM | 3.97 µM | 1.34 µM | 2.72 µM | 1.91 µM | 3.66 µM | 1.65 µM | 3.25 µM | 1.59 µM | 3.16 µM | 1.7 µM | 3.26 µM | 1.74 µM | 3.88 µM |
| CCCCCCCCCCCCCCCCC(=O)O.CCCCCCCCCCCCCCCCCC(=O)O.CCCCCCCCCCCCCCCCCC(=O)O.CCCCCCCCCCCCCCCCCC(=O)O.CCCCCCCCCCCCCCCCCC(=O)O.CO[CH-]OC12COC1CC(O)C1(C)C(O)C(OC(C)O)C3=C(C)C(OC(=O)C(O)C([NH-])c4ccccc4)CC(O)(C(OC(=O)c4ccccc4)C21)C3(C)C.[Cu+].[Zn].[Zn].[Zn].[Zn].[Zn] (stereo unspecified) | 0.0131 µM | > 20.4 µM | 0.258 µM | > 25 µM | 0.222 µM | > 25 µM | 0.00656 µM | > 25 µM | 0.00309 µM | > 25 µM | 0.00441 µM | 3.66 µM | 0.00747 µM | 0.388 µM | 0.0595 µM | > 10.9 µM |  |  | 0.00998 µM | 5.63 µM |
| COc1cc(-c2cc(-c3cc(OC)c(OC)c(OC)c3)nc3nc(N)[nH]c(=O)c23)ccc1Oc1ccnc2cc(Cl)ccc12 | 2.35 µM | 16.7 µM |  |  | 0.457 µM | 24.4 µM | 0.548 µM | 14.9 µM | 1.29 µM | 22.2 µM | 3.45 µM | 37.7 µM | 0.736 µM | 13.6 µM | 3.86 µM | > 100 µM |  |  | 3.18 µM | > 100 µM |
| Cc1cc(C)nc(NS(=O)(=O)c2ccc(Nc3c4ccc(Cl)cc4nc4c(C(=O)NCCN(C)C)cccc34)cc2)n1 |  | > 100 µM |  | > 100 µM |  | > 100 µM |  | > 100 µM |  | > 100 µM |  | > 100 µM |  | > 100 µM |  | > 100 µM |  |  |  |  |
| Cc1ccc(S(=O)OCC23CC4CC(CC(C4)C2)C3)cc1 (stereo unspecified) |  | > 100 µM |  | > 100 µM |  | > 100 µM |  | > 100 µM |  | > 100 µM |  | > 100 µM |  | > 100 µM |  | > 100 µM |  |  |  |  |
